Consider nine compounds from patent US6274559A, “Liver protection or treatment agents comprising asiatic acid derivatives as the active component” (Dong Kook Pharmaceutical Co., Ltd., priority 1997, dated 2001).

The test system of data set [1] is liver cell (carbon tetrachloride-induced toxicity). Nature of the data set: Protection effect against carbon tetrachloride-induced toxicity of liver cell (GPT activity, relative protection). It is filed as cell-based, male Wister rats. As to conditions: 10 mM carbon tetrachloride, 1.5 h; for Relative liver cell protection at 5 µg/mL / Relative liver cell protection at 50 µg/mL: Rattus norvegicus. The method, then: (§1) As experimental animals, male Wister rats weighing between 150~200 g were used. All rats were fasted during 18~24 h, and then the isolation of liver cells was performed by using the two-step collagenase flow-through method [D. M. Crisp and C. I. Pogson, Biochem., 126, 1009 (1972)], which is a form that the Berry & Friend method [M. N. Berry and D. S. Friend, J. Cell, Biol., 43, 5006 (1969)] is a little modified.
(§2) These liver cells getting into toxicity induced by said methods were incubated separately in the incubation mediums containing said compounds of 5 μg/ml and 50 μg/ml. Then, withdrawing the incubation medium, the activity of glutamic pyruvic transaminase (GPT) was determined by the Reitman-Frankel method [S. Reitman and S. Frankel, Am, J. Cli. Pathol., 28, 56 (1957)]. The GPT value of healthy liver cell was defined as 100%, and that of liver cell getting into toxicity induced by said methods was defined as 0%. At the basis of said definition, the GPT values of liver cells recovered from galactosamine-induced toxicity by the compounds were converted into relative protections (%) to show the protection effect of liver cell against the toxicity by the compounds.
To investigate the protection effect of the compounds of the formula 1 of this invention against carbon tetrachloride-induced toxicity of liver cell, the following experiment was performed.
(§3) The experiment was performed in the same manner as in Experimental example 1, except that carbon tetrachloride was used by following method to induce liver cells to get into the toxicity.
(§4) The isolated liver cells were incubated in a normal incubation medium for 24 h, and then more incubated in 10 mM carbon tetrachloride-containing incubation medium for 1.5 h to induce liver cells to get into the toxicity of carbon tetrachloride [Y. Kiso, Y. Suzuki and H. Hikino, Planta. Med., 49, 222 (1983)].

For data set [2], the system named is liver cell (galactosamine-induced toxicity). Nature of the data set: Protection effect against galactosamine-induced toxicity of liver cell (GPT activity, relative protection). The following applies: 1.5 mM galactosamine, 14 h, healthy liver cell = 100%, toxicity = 0%; for Relative liver cell protection (%) at 5 µg/mL / Relative liver cell protection (%) at 50 µg/mL: Rattus norvegicus. The class given is cell-based, male Wister rats.
Source text: To investigate the protection effect of the compounds of the formula 1 of this invention, i. e. 2-oxoasiatic acid, 2-methylasiatic acid, methyl 2α-acetoxyurs-12-en-23-al-3-on-28-oate, tetrahydropyranyl 3β,23-diacetoxyurs-12-en-28-oate, ethoxymethyl 2α-hydroxy-3β,23-isopropylidendioxyurs-12-en-28-oate, methyl 2,3-β-epoxy-12-en-23-carbomethoxyurs-28-oate, methyl 2,3-β-epoxy-12-en-23-benzamidours-28-oate, 1-ethoxyethyl asiatate and 2',3',4',6'-tetra-O-acetylglucosyl 2,3,23-tri-O-acetylurs-28-oate, against galactosamine-induced toxicity of liver cell, the following experiment was performed.
as §1
(§5) The isolated liver cells were incubated in a normal incubation medium for 1.5 h, and then more incubated in 1.5 mM galactosamine-containing incubation medium for 14 h to induce liver cells to get into the toxicity of galactosamine [Y. Kris, M. Tohkin and H. Hikino, J. Nat. Prod., 46, 841 (1983)].
as §2

Data set [3] shares this test system. Nature of the data set: Concentration dependency of protection effect against galactosamine-induced toxicity of liver cell. It is filed as cell-based, male Wister rats. The following applies: for Relative liver cell protection (%) at 1 µM / Relative liver cell protection (%) at 10 µM / Relative liver cell protection (%) at 50 µM / Relative liver cell protection (%) at 100 µM / Relative liver cell protection (%) at 200 µM: Rattus norvegicus. The method, then: as §1, §5, §2
To investigate concentration dependency of the protection effect of the compounds of the formula 1 of this invention, i. e. 2-oxoasiatic acid, 2-methylasiatic acid and methyl 2α-acetoxyurs-12-en-23-al-3-on-28-oate, against galactosamine-induced toxicity of liver cell, the experiment was performed in the same manner as in Experimental example 1, except that the compound concentrations tested were 1, 10, 50, 100 and 200 μM.

Data set [4] deals with liver cell (carbon tetrachloride-induced toxicity). In words: Concentration dependency of protection effect of liver cell against carbon tetrachloride-induced toxicity. It is filed as cell-based, male Wister rats. The protocol:
as §1, §2, §3, §4
To investigate the concentration dependency of the protection effect of the compounds of the formula 1 of this invention, i. e. 2-oxoasiatic acid, against carbon tetrachloride-induced toxicity of liver cell, the experiment was performed in the same manner as in Experimental example 2, except that the compound concentrations tested were 1, 10, 50, 100 and 200 μM.

A short description of data set [5]: in vivo. As to conditions: mouse, in vivo, ip. The protocol:
(§6) Administering 2-oxoasiatic acid of various concentrations to male ICR mice weighing between 20~25 g by peritoneal injection, the toxicity of 2oxoasiatic acid was tested.

Data set [6] deals with male ICR mice. In words: Safety study through toxicity test in mice by peritoneal injection. The method, then:
as §6

The mark [7] stands for this setting: 5 μg/ml of compound concentration.
The mark [8] stands for this setting: 50 μg/ml of compound concentration.

With “2',3',4',6'-tetra-O-acetylglucosyl 2,3,23-tri-O-acetylurs-28-oate”, the “Relative liver cell protection (%)” value in data set [1] (setting [7]) was determined as 39%; in data set [1] (setting [8]), 34%; in data set [2] (setting [7]) it was 79%; in data set [2] (setting [8]), 21%.
Consider 2-methylasiatic acid, for which the “Relative liver cell protection (%)” value in data set [1] (setting [7]) turned out to be 29%; in data set [1] (setting [8]), 9%; in data set [3] (compound 1 μM), 31.9%; in data set [3] (compound 10 μM), 40.3%; in data set [3] (compound 50 μM), 58.2%; in data set [3] (compound 100 μM) it was 43.9%. Further, the “Relative liver cell protection (%)” value is recorded as 0.0% in data set [3] (compound 200 μM), 43% in data set [2] (setting [7]) and 62% in data set [2] (setting [8]). In addition, the “concentration dependency of protection effect” value (“concentration dependency” below) in data set [3] (100 and 200 μM) is on record as “the protection effects of them rapidly decreased”; in data set [3] (range of 1~50 μM), “the greater were the protection effects”.
In turn, `CCOC(C)OC(=O)[C@]12CC[C@@H](C)[C@H](C)[C@H]1C1=CC[C@@H]3[C@@]4(C)C[C@@H](O)[C@H](O)[C@@](C)(CO)[C@@H]4CC[C@@]3(C)[C@]1(C)CC2` (stereo partly shown) [1-Ethoxyethyl asiatate, 1-ethoxyethyl asiatate] displayed a Relative liver cell protection at 5 µg/mL in data set [1] (setting [7]) of 8%. The Relative liver cell protection at 50 µg/mL in data set [1] (setting [8]) stood at 7%. The same compound displayed a Relative liver cell protection (%) at 5 µg/mL in data set [2] (setting [7]) of 66%. Further, the Relative liver cell protection (%) at 50 µg/mL in data set [2] (setting [8]) is 0%.
The LD50 is the dose at which mortality reaches 50%. Higher therefore signals a less toxic substance. Compound `C[C@H]1[C@H](C)CC[C@]2(C(=O)O)CC[C@]3(C)C(=CC[C@@H]4[C@@]5(C)CC(=O)[C@H](O)[C@@](C)(CO)[C@@H]5CC[C@]43C)[C@H]12` [2-Oxoasiatic acid, 2-oxoasiatic acid] showed a Relative liver cell protection at 5 µg/mL in data set [1] (setting [7]) of 30%. The compound also displayed a Relative liver cell protection at 50 µg/mL in data set [1] (setting [8]) of 44%. The same compound registered a relative liver cell protection at 1 µM in data set [4] (Rattus norvegicus, compound 1 μM) of 1.6%. Also, the relative liver cell protection at 10 µM in data set [4] (Rattus norvegicus, compound 10 μM) worked out at 5%. In data set [4] (Rattus norvegicus, compound 50 μM), this compound showed a relative liver cell protection at 50 µM of 3.3%. The same compound came in with a relative liver cell protection at 100 µM in data set [4] (Rattus norvegicus, compound 100 μM) of 30.9%. Besides, the relative liver cell protection at 200 µM in data set [4] (Rattus norvegicus, compound 200 μM) was determined as 48.1%. For the same compound, the “concentration dependency” value in data set [4] (concentration range of 1~200 μM) is on record as “the greater was the protection effects”. Moreover, the “concentration dependency” value in data set [3] (100 and 200 μM) is “the protection effects of them rapidly decreased”. This compound registered a Relative liver cell protection (%) at 1 µM in data set [3] (compound 1 μM) of 29.8%. In data set [3] (compound 10 μM), the Relative liver cell protection (%) at 10 µM worked out at 43.2%. In addition, the Relative liver cell protection (%) at 50 µM in data set [3] (compound 50 μM) worked out at 50.4%. The Relative liver cell protection (%) at 100 µM in data set [3] (compound 100 μM) was 25.3%. In data set [3] (compound 200 μM), this compound had a Relative liver cell protection (%) at 200 µM of 8.5%. The “concentration dependency” value in data set [3] (range of 1~50 μM) is reported as “the greater were the protection effects”. In addition, the Relative liver cell protection (%) at 5 µg/mL in data set [2] (setting [7]) came to 15%. The compound further had a Relative liver cell protection (%) at 50 µg/mL in data set [2] (setting [8]) of 62%. This compound showed an LD50 in data set [5] of 750 mg/kg. In data set [6] (male ICR mice, peritoneal injection, fatal dose), the opisthotonus result is reported as “opisthotonus was showed at a fatal dose”. Moreover, in data set [6] (mouse, in vivo), the “body weight of surviving mice” value is “did not change”; the motor activity result was “motor activity was decreased dose-dependently”; the “pilo-erection, tachypnea and convulsion” value is recorded as “induced dose-dependently”; the “recovery of surviving mice” value is “rapid recovery”. Moreover, the type of toxicity entry in data set [6] (mouse, in vivo) was “typical toxicity of central nervous system”.
`CCOCOC(=O)[C@]12CC[C@@H](C)[C@H](C)[C@H]1C1=CC[C@@H]3[C@@]4(C)C[C@@H](O)[C@@H]5OC(C)(C)OC[C@@]5(C)[C@@H]4CC[C@@]3(C)[C@]1(C)CC2` [ethoxymethyl 2α-hydroxy-3β,23-isopropylidendioxyurs-12-en-28-oate]: the Relative liver cell protection at 5 µg/mL in data set [1] (setting [7]) was 15%. Further, the Relative liver cell protection at 50 µg/mL in data set [1] (setting [8]) came to 5%. The same compound came in with a Relative liver cell protection (%) at 5 µg/mL in data set [2] (setting [7]) of 66%. In data set [2] (setting [8]), the Relative liver cell protection (%) at 50 µg/mL came out at 45%.
`COC(=O)[C@]12CC[C@@H](C)[C@H](C)[C@H]1C1=CC[C@@H]3[C@@]4(C)C[C@@H](OC(C)=O)C(=O)[C@@](C)(C=O)[C@@H]4CC[C@@]3(C)[C@]1(C)CC2` [methyl 2α-acetoxyurs-12-en-23-al-3-on-28-oate] had a Relative liver cell protection at 5 µg/mL in data set [1] (setting [7]) of 21%. Moreover, the Relative liver cell protection at 50 µg/mL in data set [1] (setting [8]) worked out at 0%. Moreover, the “concentration dependency” value in data set [3] (100 and 200 μM) is on record as “the protection effects of them rapidly decreased”; in data set [3] (range of 1~50 μM), “the greater were the protection effects”. Moreover, in data set [3] (compound 1 μM), the Relative liver cell protection (%) at 1 µM came out at 27.4%. In data set [3] (compound 10 μM), this compound displayed a Relative liver cell protection (%) at 10 µM of 39%. In data set [3] (compound 50 μM), the Relative liver cell protection (%) at 50 µM was found to be 60%. The Relative liver cell protection (%) at 100 µM in data set [3] (compound 100 μM) is 33.1%. This compound also came in with a Relative liver cell protection (%) at 200 µM in data set [3] (compound 200 μM) of 0%. In addition, in data set [2] (setting [7]), the Relative liver cell protection (%) at 5 µg/mL came to 42%. The Relative liver cell protection (%) at 50 µg/mL in data set [2] (setting [8]) stood at 80%.
The compound `CC(=O)OC[C@@]1(C)[C@@H]2CC[C@]3(C)[C@H](CC=C4[C@@H]5[C@@H](C)[C@H](C)CC[C@]5(C(=O)OC5CCCCO5)CC[C@]43C)[C@@]2(C)CC[C@@H]1OC(C)=O` (stereo partly drawn) [tetrahydropyranyl 3β,23-diacetoxyurs-12-en-28-oate] displayed a Relative liver cell protection at 5 µg/mL in data set [1] (setting [7]) of 42%. This compound had a Relative liver cell protection at 50 µg/mL in data set [1] (setting [8]) of 30%. Besides, the Relative liver cell protection (%) at 5 µg/mL in data set [2] (setting [7]) worked out at 58%. In data set [2] (setting [8]), this compound came in with a Relative liver cell protection (%) at 50 µg/mL of 66%.
On to “methyl 2,3-β-epoxy-12-en-23-benzamidours-28-oate”, for which the “Relative liver cell protection (%)” value in data set [1] (setting [7]) is listed as 0%; in data set [1] (setting [8]), 23%; in data set [2] (setting [7]), 38%; in data set [2] (setting [8]), 40%.
The corresponding values for “methyl 2,3-β-epoxy-12-en-23-carbomethoxyurs-28-oate” are 0%, 0%, 26% and 53%.
